According to PubChem BioAssay (NCI):
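These data come from cells grown in 96-well plates and exposed to compound for 48 hours at five concentrations. TGI marks complete inhibition of growth.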 Where a SMILES comes first, the peptide text is derived from it. [ ]: non-standard residue; d: D form. The star is where a group is joined. ξ: configuration not given here. dThr(3ξ) = CC(O)[C@@H](N)C(=O)O; dNMeL = CN[C@H](CC(C)C)C(=O)O; OBn = c1ccc(CO*)cc1; ξLac = CC(O)C(=O)O

What was measured:
Assay in all cases: DTP human tumour cell line panel, 48 h
[1] = tested on: 786-0 renal
[2] = tested on: ACHN renal
[3] = tested on: BT-549 breast
[4] = tested on: CCRF-CEM leukemia
[5] = tested on: EKVX NSCLC
[6] = tested on: HCC-2998 colon
[7] = tested on: HCT-116 colon
[8] = tested on: HOP-62 NSCLC
[9] = tested on: MDA-MB-435
[10] = tested on: NCI-H226 lung
[11] = tested on: NCI-H460 lung
[12] = tested on: OVCAR-5 ovarian
[13] = tested on: OVCAR-8 ovarian
[14] = tested on: RPMI-8226 leukemia
[15] = tested on: RXF 393 renal
[16] = tested on: SF-295 CNS
[17] = tested on: SK-MEL-5 melanoma
[18] = tested on: SK-OV-3 ovarian
[19] = tested on: SNB-75 CNS
[20] = tested on: U251 CNS

| SMILES | TGI [1] | TGI [2] | TGI [3] | TGI [4] | TGI [5] | TGI [6] | TGI [7] | TGI [8] | TGI [9] | TGI [10] | TGI [11] | TGI [12] | TGI [13] | TGI [14] | TGI [15] | TGI [16] | TGI [17] | TGI [18] | TGI [19] | TGI [20] |
| --- | --- | --- | --- | --- | --- | --- | --- | --- | --- | --- | --- | --- | --- | --- | --- | --- | --- | --- | --- | --- |
| NS(=O)(=O)c1ccc(NNc2c3ccccc3nc3ccccc23)cc1 | 17.4 µM | 19.9 µM | 15.1 µM | 18.5 µM | 21.1 µM | 17.6 µM | 15.5 µM | 22.4 µM | 17 µM | 18.8 µM | 21.3 µM | 17.5 µM | 16.6 µM | 21.6 µM | 23 µM | 19.8 µM | 17.2 µM | 24.5 µM | 21.9 µM | 16.3 µM |
| N#Cc1c(-c2ccccc2)c(N=Nc2ccc(F)cc2)c(=O)n2c1[nH]c1ccccc12 | 14.3 µM | > 64.6 µM | 89.2 µM | 7.57 µM | 41.3 µM | > 100 µM | 14.2 µM | 29.3 µM | > 100 µM | 39.1 µM | 19.9 µM | 50.5 µM | 24 µM | 12.9 µM | 44.6 µM | 24.8 µM | 4.94 µM | 31.5 µM | 39.4 µM | 18.1 µM |
| Cc1cccc(N=Nc2c(C)nn(C(=O)CC(=O)Nc3ccccc3)c2C)c1 | > 100 µM | > 100 µM | > 100 µM | > 100 µM | > 100 µM | > 100 µM | > 100 µM | > 100 µM | > 100 µM | > 100 µM | > 100 µM | > 100 µM | > 100 µM | > 100 µM | > 100 µM | > 100 µM | > 100 µM | > 100 µM | > 100 µM | > 100 µM |
| COc1ccc(-c2c(C#N)c(-c3ccc(C)cc3)n(NS(=O)(=O)c3ccccc3)c(=O)c2C#N)cc1 | > 100 µM | > 100 µM | > 100 µM | > 100 µM | > 100 µM | > 100 µM | > 100 µM | > 100 µM | > 100 µM | > 100 µM | > 100 µM | > 100 µM | > 100 µM | 39.4 µM | > 100 µM | > 100 µM | 44.8 µM | > 100 µM | > 100 µM | > 100 µM |
| O=S(=O)(N=S(c1ccc(Cl)cc1)c1ccc(Cl)cc1)c1ccccc1 | > 100 µM | > 100 µM | > 100 µM | > 100 µM | > 100 µM | > 100 µM | > 100 µM | > 100 µM | > 100 µM | > 100 µM | > 100 µM | > 100 µM | > 100 µM | > 100 µM | > 100 µM | > 100 µM | > 100 µM | > 100 µM | > 100 µM | > 100 µM |
| CCOC(=O)C(NC(=O)c1ccccc1)(Nc1ccc(S(=O)(=O)Nc2nc(C)cc(C)n2)cc1)C(F)(F)F (stereo not given) | > 100 µM | > 100 µM | > 100 µM | > 100 µM | > 100 µM | > 100 µM | > 100 µM | > 100 µM | > 100 µM | > 100 µM | > 100 µM | > 100 µM | > 100 µM | > 100 µM | > 100 µM | > 100 µM | > 100 µM | > 100 µM | > 100 µM | > 100 µM |
| CC(=O)OC(C)[C@@H](NC(=O)[C@@H](CC(C)C)N(C)C(=O)[C@@H]1CCCN1C(=O)C(C)O)C(=O)OCc1ccccc1 (stereo not given in full) (H-[ξLac]P[dNMeL][dThr(3ξ)](Ac)-OBn) | > 100 µM | > 100 µM | > 100 µM | > 100 µM | > 100 µM | > 100 µM | > 100 µM | > 100 µM | > 100 µM | > 100 µM | > 100 µM | > 100 µM | > 100 µM | > 100 µM | > 100 µM | > 100 µM | > 100 µM | > 100 µM | > 100 µM | > 100 µM |
| Cn1c(=O)c2c(no[n+]2[O-])n(C)c1=O | 71.8 µM | > 100 µM | 51.9 µM | > 100 µM | 67.9 µM | > 100 µM | > 100 µM | 47.3 µM | 38.3 µM | 59.3 µM | > 100 µM | > 100 µM | 37 µM | > 100 µM | 94.2 µM | > 100 µM | > 100 µM | > 100 µM | 99.2 µM | 49.4 µM |
| O=c1[nH]c(-c2cccc(F)c2)nc2ccccc12 | > 100 µM | > 68.7 µM | > 68.8 µM | > 100 µM | > 100 µM | > 100 µM | > 57.7 µM | 52.4 µM | > 100 µM | > 100 µM | > 100 µM | > 100 µM | > 93.1 µM | > 100 µM | 89.4 µM | > 72.7 µM | > 100 µM | > 61.3 µM | 62.7 µM | > 100 µM |
| CC(C)[Si](OC1=C(C(=O)Nc2ccccc2Cl)CCCCC1)(C(C)C)C(C)C | > 100 µM | > 100 µM | > 100 µM | 12.3 µM | > 100 µM | > 100 µM | > 100 µM | > 100 µM | > 100 µM | > 100 µM | > 100 µM | > 100 µM | > 100 µM | > 100 µM | > 100 µM | > 100 µM | > 100 µM | > 100 µM | > 100 µM | > 100 µM |
| O=C1CCCC2=C(N1)C(=O)C=CC2=O | 57.5 µM | 55.1 µM | 31.1 µM | 28.5 µM | 53 µM | > 100 µM | 49.1 µM | 61.9 µM | 32.7 µM | > 68.5 µM | 63.8 µM | 48.6 µM | 64.2 µM | 60.2 µM | 62.9 µM | 56.4 µM | 57.1 µM | > 100 µM | 60 µM | 58.8 µM |
